Where two headings read alike, the source gives them in different places.
Experiments:
[1] = target: T1, SARS-CoV-2 NSP3 macrodomain (Mac1) (Severe acute respiratory syndrome coronavirus 2, UniProt P0DTD1); assay: biochemical; assay type: binding
[2] = target: T1, SARS-CoV-2 NSP3 macrodomain (Mac1); assay type: binding; conditions: for Number of isomers bound: ligand modeling, Mac1 crystal soak
[3] = compound at 200 μM, mean of three to four technical replicates, read-out: % competition at 200 μM (preliminary HTRF screen)
[4] = single dose concentration 200 μM (TS-FrankenROCS series)
[5] = Single dose, concentration 200 μM
[6] = SARS CoV-2 macrodomain HTRF assay, single dose concentration 200 μM, read-out: Average % competition
[7] = crystal soak 10 mM, P43 crystal form
[8] = crystal soak 10 mM, DMSO background map
[9] = SARS CoV-2 macrodomain HTRF assay
[10] = SARS CoV-2 macrodomain HTRF assay, dose-response, read-out: IC50
[11] = stereoisomer(s) modeled as bound, residues 201/202/203

Structure (SMILES) | inhibition at 200 µM [1, 3] [%] | Number of isomers bound [2] | Average % competition [1, 5] [%] | PanDDA run, TFA/DMSO background map: 1-BDC ([2]; crystal soak 10 mM) | PanDDA run, TFA/DMSO background map: Hit ([2]; crystal soak 10 mM) | further results
Cc1cc2c(=O)n(CCN3C(=O)c4ccccc4S3(=O)=O)nnc2s1 [AVI-341] | 11 | 1 |  |  |  | Average % competition [1, 4]: 11%
OCC(Nc1ncnc2[nH]ccc12)C1CCCC1 (centres unmarked) [AVI-3649] | 68 | 1 | 68 | 0.11 | TRUE | 
OC[C@H]1CN2CCC[C@H]2CN1c1ncnc2[nH]ccc12 [AVI-3724] | < 10 |  |  |  |  | inhibition at 200 µM [1, 6]: < 10%; PanDDA run, overall: Hit [2, 7]: TRUE; PanDDA run, overall: Modeling comment [2, 7]: Weak density, not modeled; PanDDA run, DMSO background map: 1-BDC [2, 8]: 0.05; PanDDA run, DMSO background map: Hit [2, 8]: TRUE
OC1CCCN(c2ncnc3[nH]ccc23)C1 (centres unmarked) [AVI-3646] | 20 | 1 |  | 0.13 | TRUE | Average % competition ([1]; SARS CoV-2 macrodomain HTRF assay, single dose concentration 200 μM): 20%
CC(C)(C)CC(CO)Nc1ncnc2[nH]ccc12 (centres unmarked) [AVI-3648] | 27 | 1 | 27 | 0.16 | TRUE | 
CC(C)(C)C1CCC(CO)N(c2ncnc3[nH]ccc23)C1 (centres unmarked) [AVI-3719] | 36 | 1 |  |  |  | inhibition at 200 µM [1, 6]: 36%
OCC(Nc1ncnc2[nH]ccc12)c1ccccc1 (centres unmarked) [AVI-3715] | 54 | 1 | 54 | 0.09 | TRUE | 
O[C@H]1CC[C@@H]2CCN(c3ncnc4[nH]ccc34)[C@@H]21 [AVI-3664] |  | 1 |  | 0.15 | TRUE | Ki [1, 9]: 26 µM; Ligand efficiency (binding enery per heavy atom) [1, 9]: 0.35; IC50 [1, 10]: 28 µM; Isomers modeled [2, 11]: SRS
CC1CC(C(=O)O)CCN1C(=O)c1ccc2c(c1)OCC(=O)N2 (centres unmarked) [AVI-303] | < 10 | 1 |  |  |  | inhibition at 200 µM ([1]; single dose concentration 200 μM (TS-FrankenROCS series), read-out: Average % competition): < 10%
CC1CCC(O)(CNc2ncnc3[nH]ccc23)CC1 (centres unmarked) [AVI-4312] |  |  |  |  |  | Ki [1, 9]: 20 µM; Ligand efficiency (binding enery per heavy atom) [1, 9]: 0.34; IC50 [1, 10]: 21 µM; Isomers modeled ([2]; stereoisomer(s)/conformations of the soaked ligand modeled in the Mac1 crystal structure): rr
OCC(CC1CC1)Nc1ncnc2[nH]ccc12 (centres unmarked) [AVI-3662] | 44 | 1 | 44 | 0.09 | TRUE | 
Cc1c(C)n(Cc2ccccc2)c2ncnc(N)c12 [AVI-321] | 19 | 1 |  |  |  | 
OCC(CC1CCCO1)Nc1ncnc2[nH]ccc12 (centres unmarked) [AVI-3660] | 18 | 1 | 18 | 0.17 | TRUE | 
OCC(Cc1ccc(I)cc1)Nc1ncnc2[nH]ccc12 (centres unmarked) [AVI-3686] | < 10 | 2 | <10 | 0.19 | TRUE | Isomers modeled [2, 11]: S,R
OC[C@@H]1C[C@@H]2CCC[C@@H]2N1c1ncnc2[nH]ccc12 [AVI-3720] |  | 1 |  |  |  | Ki [1, 9]: 26 µM; Ligand efficiency (binding enery per heavy atom) [1, 9]: 0.33; IC50 [1, 10]: 28 µM; Isomers modeled [2, 11]: SSS
OCC(O)C1CCCN1c1ncnc2[nH]ccc12 (centres unmarked) [AVI-3701] | 54 | 1 |  | 0.16 | TRUE | inhibition at 200 µM [1, 6]: 54%

Structure (SMILES) | inhibition at 200 µM [1, 3] [%] | Number of isomers bound [2] | Average % competition [1, 5] [%] | PanDDA run, TFA/DMSO background map: 1-BDC ([2]; crystal soak 10 mM) | PanDDA run, TFA/DMSO background map: Hit ([2]; crystal soak 10 mM) | further results
OCC(Nc1ncnc2[nH]ccc12)C1CCOC1 (centres unmarked) [AVI-3679] | 35 | 1 | 35 | 0.11 | TRUE | 
CC(CNC(=O)c1ccc2c(c1)CCC(=O)N2)C(=O)O (centres unmarked) [AVI-328] |  | 2 |  |  |  | Ligand efficiency (binding enery per heavy atom) [1]: 0.25; Ki ([1]; dose-response): 210 µM; IC50 ([1]; read-out: IC50 (confirmatory HTRF dose-response screen)): 220 µM; Isomers modeled [2, 11]: R,S
CCC(Nc1ncnc2[nH]ccc12)C(C)(C)O (centres unmarked) [AVI-3667] | 51 | 1 | 51 | 0.07 | TRUE | 
Nc1ncnc2c1ncn2[C@@H]1O[C@H](COP(=O)(O)OP(=O)(O)OC[C@H]2O[C@@H](O)[C@H](O)[C@@H]2O)[C@@H](O)[C@H]1O.[Na].[Na] [ADP-ribose, reference compound] |  |  |  |  |  | Hill slope ([1]; HTRF binding curve, SARS-CoV-2 Mac1): 1.1; X-ray crystal structure ([2]; TRUE = crystal structure with ligand obtained): TRUE
O=C(O)C(F)(F)F.OC[C@H]1CC2(CN1c1ncnc3[nH]ccc13)OCCO2 [AVI-3702] | 17 | 1 |  | 0.13 | TRUE | inhibition at 200 µM [1, 6]: 17%
C#CCC(CO)Nc1ncnc2[nH]ccc12 (centres unmarked) [AVI-3644] | 43 | 1 | 43 | 0.11 | TRUE | 
OCC(CC1CCOC1)Nc1ncnc2[nH]ccc12 (centres unmarked) [AVI-3665] | 11 | 1 | 11 | 0.15 | TRUE | 
O=C(O)C(F)(F)F.O[C@H]1CCC[C@@H]1Nc1ncnc2[nH]ccc12 [AVI-3639] | 74 | 1 | 74 | 0.09 | TRUE | 
OCC(CC1CCCC1)Nc1ncnc2[nH]ccc12 (centres unmarked) [AVI-3691] | 53 | 1 | 52 | 0.1 | TRUE | 
Cc1ccc(CC(CO)Nc2ncnc3[nH]ccc23)cc1 (centres unmarked) [AVI-3683] | 14 | 2 | 14 |  |  | Isomers modeled [2, 11]: S,R
O=C(O)C(F)(F)F.OCC12CC(CN1c1ncnc3[nH]ccc13)C2 [AVI-3681] | 54 | 1 |  | 0.12 | TRUE | inhibition at 200 µM [1, 6]: 54%
CC1CCN(C(=O)c2ccc3c(c2)nc(CO)n3C)CC1C(=O)O (centres unmarked) [AVI-348] | < 10 | 1 |  |  |  | Average % competition [1, 4]: <10%
OCC(CC(F)(F)F)Nc1ncnc2[nH]ccc12 (centres unmarked) [AVI-3637] | 50 | 1 | 50 | 0.21 | TRUE | 
OCC(Cc1ccoc1)Nc1ncnc2[nH]ccc12 (centres unmarked) [AVI-3705] | 64 | 1 | 64 | 0.14 | TRUE | 
CC1CCN(c2ncnc3[nH]ccc23)C1CO (centres unmarked) [AVI-3655] | 75 | 1 |  | 0.18 | TRUE | inhibition at 200 µM [1, 6]: 75%

— article PMC12118597 (Science Advances, 2025)
